{"source": "paper PMC10385825", "about": "“Synthesis of Benzocycloalkanone-Based Michael Acceptors and Biological Activities as Antimalarial and Antitrypanosomal Agents” (Molecules, 2023)", "key": {"VERO cells": {"system": "VERO cells", "experiment": "Cytotoxicity assay in VERO cells (MTT)", "assay_type": "cell-based", "conditions": "Chlorocebus sabaeus, 72 h", "description": "The in vitro evaluations of compounds toxicity by MTT in VERO cells were performed as described in brief: VERO cells culture in DMEM, BSF 10%, were counted in suspension, seeded at 2 × 10^4 cells/well (100 μL) into a 96-well microplate, and incubated at 37 °C in a humidified 5% CO2 incubator for 24 h. After the incubation period, compounds were added in different concentrations: 50, 100, 150, 200, and 500 μM. The plate was incubated for 72 h in the same conditions. Then, 5 mg mL^−^1 of 3-(4,5-dimethylthiazol-2-yl)-2,5-diphenyl tetrazolium bromide (MTT) was added and incubated in darkness for 4 h. After this time, DMSO was added and the plate was read at 540 nm in a spectrophotometer Synergy HT (Biotek). The test was carried out in triplicate including untreated cells and reference drug controls."}, "[1]": {"system": "T. cruzi epimastigotes (Y strain)", "experiment": "Trypanocidal activity, proliferation of T. cruzi epimastigotes (MTT)", "assay_type": "cell-based", "conditions": "Trypanosoma cruzi, 96 h, read-out: %ITcP: T. cruzi (epimastigotes) % inhibition proliferation", "description": "The trypanocidal activity of compounds 7–39 was evaluated on the viability of T. cruzi epimastigotes (Y Strain). Parasites were cultivated in LIT medium supplemented with 10% FBS. The MTT method was used with minor modifications. Next, 2 × 10^6 parasites/mL were seeded in a 96-well plate, adding 50 μM of each derivative dissolved in DMSO (final concentration remained below 1%). The plate was incubated for 96 h at 29 °C. Then, 5 mg mL^−^1 of 3-(4,5-dimethylthiazol-2-yl)-2,5-diphenyl tetrazolium bromide (MTT) was added and incubated in darkness for 4 h. After this time, acidic isopropanol (4N) was added and the plate was read at 540 nm in a spectrophotometer Synergy HT (Biotek). Benznidazole (50 µM) was used as a reference drug."}}, "data": [{"molecule": "COc1cc2c(cc1OC)C(=O)/C(=C/c1ccc(OCc3ccccc3)cc1)C2", "note": "[compound 24, (E)-2-[4-(Benzyloxy)benzylidene]-2,3-dihydro-5,6-dimethoxyinden-1-one]", "values": [{"measurement": "melting point", "value": "207 to 208", "unit": "°C"}]}, {"molecule": "COc1ccc2c(c1)C(=O)/C(=C/c1ccc(OCc3ccccc3)cc1)C2", "note": "[compound 22, (E)-2-[4-(Benzyloxy)benzylidene]-2,3-dihydro-6-methoxyinden-1-one]", "values": [{"measurement": "melting point", "value": "178 to 179", "unit": "°C"}]}, {"molecule": "COc1ccc(OC)c2c1C/C(=C\\c1ccc(OCc3ccccc3)cc1)C2=O", "note": "[compound 25, (E)-2-[4-(Benzyloxy)benzylidene]-2,3-dihydro-4,7-dimethoxyinden-1-one]", "values": [{"measurement": "melting point", "value": "209 to 210", "unit": "°C"}]}, {"molecule": "Cc1cccc2c1C/C(=C\\c1ccc(SCc3ccccc3)cc1)C2=O", "note": "[compound 15, (E)-2-[4-(Benzylthio)benzylidene]-2,3-dihydro-4-methylinden-1-one]", "values": [{"measurement": "melting point", "value": "167 to 169", "unit": "°C"}]}, {"molecule": "O=C1/C(=C/c2ccc(SCc3ccccc3)cc2)Cc2c(Cl)cc(Cl)cc21", "note": "[compound 18, (E)-2-[4-(Benzylthio)benzylidene]-4,6-dichloro-2,3-dihydroinden-1-one]", "values": [{"measurement": "melting point", "value": "181 to 183", "unit": "°C"}]}, {"molecule": "COc1ccc2c(c1)C/C(=C\\c1ccc(SCc3ccccc3)cc1)C2=O", "note": "[compound 8, (E)-2-[4-(Benzylthio)benzylidene]-2,3-dihydro-5-methoxyinden-1-one]", "values": [{"measurement": "melting point", "value": "166 to 168", "unit": "°C"}]}, {"molecule": "O=C1/C(=C/c2ccc(SCc3ccccc3)cc2)Cc2ccc(Cl)cc21", "note": "[compound 17, (E)-2-[4-(Benzylthio)benzylidene]-6-chloro-2,3-dihydroinden-1-one]", "values": [{"measurement": "melting point", "value": 204, "unit": "°C"}]}, {"molecule": "O=C1/C(=C/c2ccc(SCc3ccccc3)cc2)CCc2ccccc21", "note": "[compound 32, (E)-2-[4-(Benzylthio)benzylidene]-3,4-dihydronaphthalen-1(2H)-one]", "values": [{"measurement": "IC50", "setting": "VERO cells", "value": "> 150", "unit": "µM"}, {"measurement": "melting point", "value": "99 to 100", "unit": "°C"}, {"measurement": "inhibition at 50 µM", "setting": "[1]", "value": "43.7 ± 6.7", "unit": "%"}]}, {"molecule": "O=C1/C(=C/c2ccc(SCc3ccccc3)cc2)Cc2cc(Cl)ccc21", "note": "[compound 16, (E)-2-[4-(Benzylthio)benzylidene]-5-chloro-2,3-dihydroinden-1-one]", "values": [{"measurement": "melting point", "value": "140 to 142", "unit": "°C"}]}, {"molecule": "O=C(Cn1ccnc1[N+](=O)[O-])NCc1ccccc1", "note": "[Bnz, benznidazole, reference compound]", "values": [{"measurement": "IC50", "setting": "VERO cells", "value": "> 200", "unit": "µM"}, {"measurement": "inhibition at 50 µM", "setting": "[1]", "value": "60 ± 2.9", "unit": "%"}]}, {"molecule": "COc1ccc2c(c1)CC/C(=C\\c1ccc(SCc3ccccc3)cc1)C2=O", "note": "[compound 34, (E)-2-[4-(Benzylthio)benzylidene]-3,4-dihydro-6-methoxynaphthalen-1(2H)-one]", "values": [{"measurement": "melting point", "value": "122 to 124", "unit": "°C"}]}, {"molecule": "COc1ccc2c(c1OC)C/C(=C\\c1ccc(OCc3ccccc3)cc1)C2=O", "note": "[compound 23, (E)-2-[4-(Benzyloxy)benzylidene]-2,3-dihydro-4,5-dimethoxyinden-1-one]", "values": [{"measurement": "melting point", "value": "167 to 168", "unit": "°C"}]}, {"molecule": "COc1ccc2c(c1)C(=O)/C(=C/c1ccc(SCc3ccccc3)cc1)C2", "note": "[compound 9, (E)-2-[4-(Benzylthio)benzylidene]-2,3-dihydro-6-methoxyinden-1-one]", "values": [{"measurement": "melting point", "value": "175 to 177", "unit": "°C"}]}, {"molecule": "O=C1/C(=C/c2ccc(OCc3ccccc3)cc2)Cc2cc(F)cc(F)c21", "note": "[compound 31, (E)-2-[4-(Benzyloxy)benzylidene]-5,7-difluoro-2,3-dihydroinden-1-one]", "values": [{"measurement": "melting point", "value": "204 to 206", "unit": "°C"}]}, {"molecule": "Cc1cccc2c1C/C(=C\\c1ccc(OCc3ccccc3)cc1)C2=O", "note": "[compound 27, (E)-2-[4-(Benzyloxy)benzylidene]-2,3-dihydro-4-methylinden-1-one]", "values": [{"measurement": "melting point", "value": "127 to 129", "unit": "°C"}]}, {"molecule": "O=C1/C(=C/c2ccc(SCc3ccccc3)cc2)Cc2cc(F)cc(F)c21", "note": "[compound 19, (E)-2-[4-(Benzylthio)benzylidene]-5,7-difluoro-2,3-dihydroinden-1-one]", "values": [{"measurement": "IC50", "setting": "VERO cells", "value": "> 150", "unit": "µM"}, {"measurement": "melting point", "value": "170 to 172", "unit": "°C"}]}, {"molecule": "COc1ccc2c(c1)C/C(=C\\c1ccc(OCc3ccccc3)cc1)C2=O", "note": "[compound 21, (E)-2-[4-(Benzyloxy)benzylidene]-2,3-dihydro-5-methoxyinden-1-one]", "values": [{"measurement": "melting point", "value": "141 to 142", "unit": "°C"}]}, {"molecule": "COc1cccc2c1CC/C(=C\\c1ccc(SCc3ccccc3)cc1)C2=O", "note": "[compound 33, (E)-2-[4-(Benzylthio)benzylidene]-3,4-dihydro-5-methoxynaphthalen-1(2H)-one]", "values": [{"measurement": "IC50", "setting": "VERO cells", "value": "> 150", "unit": "µM"}, {"measurement": "inhibition at 50 µM", "setting": "[1]", "value": "51.1 ± 3.4", "unit": "%"}]}, {"molecule": "O=C1/C(=C/c2ccc(SCc3ccccc3)cc2)Cc2ccccc21", "note": "[compound 7, (E)-2-[4-(Benzylthio)benzylidene]-2,3-dihydroinden-1-one]", "values": [{"measurement": "melting point", "value": "155 to 157", "unit": "°C"}]}, {"molecule": "O=C1/C(=C/c2ccc(OCc3ccccc3)cc2)Cc2ccccc21", "note": "[compound 20, (E)-2-[4-(Benzyloxy)benzylidene]-2,3-dihydroinden-1-one]", "values": [{"measurement": "melting point", "value": 170, "unit": "°C"}]}, {"molecule": "O=C1/C(=C/c2ccc(OCc3ccccc3)cc2)Cc2c(Cl)cc(Cl)cc21", "note": "[compound 30, (E)-2-[4-(Benzyloxy)benzylidene]-4,6-dichloro-2,3-dihydroinden-1-one]", "values": [{"measurement": "melting point", "value": "202 to 203", "unit": "°C"}]}, {"molecule": "COc1cc2c(c(OC)c1)C(=O)/C(=C/c1ccc(SCc3ccccc3)cc1)C2", "note": "[compound 13, (E)-2-[4-(Benzylthio)benzylidene]-2,3-dihydro-5,7-dimethoxyinden-1-one]", "values": [{"measurement": "melting point", "value": "176 to 178", "unit": "°C"}]}, {"molecule": "O=C1/C(=C/c2ccc(OCc3ccccc3)cc2)Cc2cc(Cl)ccc21", "note": "[compound 28, (E)-2-[4-(Benzyloxy)benzylidene]-5-chloro-2,3-dihydroinden-1-one]", "values": [{"measurement": "melting point", "value": "189 to 190", "unit": "°C"}]}, {"molecule": "O=C1/C(=C/c2ccc(SCc3ccccc3)cc2)Cc2cc3c(cc21)OCO3", "note": "[compound 14, (E)-2-[4-(Benzylthio)benzylidene]-2,3-dihydro-5,6-methylendioxyinden-1-one]", "values": [{"measurement": "melting point", "value": "194 to 196", "unit": "°C"}]}, {"molecule": "COc1ccc2c(c1)C(=O)/C(=C/c1ccc(SCc3ccccc3)cc1)CC2", "note": "[compound 35, (E)-2-[4-(Benzylthio)benzylidene]-3,4-dihydro-7-methoxynaphthalen-1(2H)-one]", "values": [{"measurement": "IC50", "setting": "VERO cells", "value": "> 150", "unit": "µM"}, {"measurement": "inhibition at 50 µM", "setting": "[1]", "value": "36.2 ± 6.1", "unit": "%"}]}, {"molecule": "O=C1/C(=C/c2ccc(OCc3ccccc3)cc2)Cc2ccc(Cl)cc21", "note": "[compound 29, (E)-2-[4-(Benzyloxy)benzylidene]-6-chloro-2,3-dihydroinden-1-one]", "values": [{"measurement": "melting point", "value": "186 to 187", "unit": "°C"}]}]}
